Laboratory results from patent US20260365682A1, “MODULATORS OF TNF-ALPHA ACTIVITY” (Forward Therapeutics, Inc., priority 2022, published 2026).
Like-named read-outs stand apart in the source and are kept apart here.

Molecular target: T1, TNF-α (Homo sapiens, UniProt P01375)
T1 construct: purchased R&D 210-TA-020/CF
Test: TNF-α Induced HEK Blue Cellular Assay (secreted alkaline phosphatase expression, QUANTI-Blue)
Type: cell-based
Conditions: HEK Blue TNFα reporter cells, TNF-α 100 μg/ml, 24 hrs at 37° C., inhibition of secreted alkaline phosphatase
Summary of the method: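 HEK Blue TNFα reporter cells (10,000/well) in DMEM with 10% FBS received compound ([…] to 0.5 nM final) and TNF-α at […] final for 24 h at 37° C. Secreted alkaline phosphatase read with QUANTI-Blue at 620 nm. IC50 came from a 4-parameter logistic fit after normalising to unstimulated and stimulated DMSO controls.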

T1 sequence (P01375 77-233 limits assumed): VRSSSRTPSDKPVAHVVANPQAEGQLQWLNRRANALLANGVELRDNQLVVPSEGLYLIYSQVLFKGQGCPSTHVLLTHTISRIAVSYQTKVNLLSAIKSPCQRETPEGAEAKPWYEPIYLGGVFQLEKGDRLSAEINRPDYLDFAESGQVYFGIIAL

Compound	IC50 (read-out: IC50 value)	IC50 (IC50 value)
[2H]C([2H])([2H])N1C(=O)c2cccc(OC(F)F)c2[C@H]2C[C@@H]1c1nc3ccc(C#CCCCC#N)cc3n12 [Example 86, 6-((7R,14R)-1-(difluoromethoxy)-6-(methyl-d3)-5-oxo-5,6,7,14-tetrahydro-7,14-methanobenzo[f]benzo[4,5]imidazo[1,2-a][1,4]diazocin-11-yl)hex-5-ynenitrile]	< 100 nM	
[2H]C([2H])([2H])N1C(=O)c2cccc(OC(F)F)c2[C@H]2C[C@@H]1c1nc3ccc(C#C[C@H](C)COC)cc3n12 [Example 142, (7R,14R)-1-(difluoromethoxy)-11-((S)-4-methoxy-3-methylbut-1-yn-1-yl)-6-(methyl-d3)-6,7-dihydro-7,14-methanobenzo[f]benzo[4,5]imidazo[1,2-a][1,4]diazocin-5(14H)-one]	< 100 nM	
[2H]C([2H])([2H])N1C(=O)c2cccc(OC(F)F)c2[C@H]2C[C@@H]1c1nc3ccc(C#CCN4CC[C@H](F)C4)cc3n12 [Example 235, (7R,14R)-1-(difluoromethoxy)-11-(3-((S)-3-fluoropyrrolidin-1-yl)prop-1-yn-1-yl)-6-(methyl-d3)-6,7-dihydro-7,14-methanobenzo[f]benzo[4,5]imidazo[1,2-a][1,4]diazocin-5(14H)-one]	< 100 nM	
[2H]C([2H])([2H])N1C(=O)c2cccc(OC(F)F)c2[C@H]2C[C@@H]1c1nc3ccc(C#CC4CCCN(C(C)=O)C4)cc3n12 (stereo partly drawn) [Example 183, (7R,14R)-11-((1-acetylpiperidin-3-yl)ethynyl)-1-(difluoromethoxy)-6-(methyl-d3)-6,7-dihydro-7,14-methanobenzo[f]benzo[4,5]imidazo[1,2-a][1,4]diazocin-5(14H)-one]	< 100 nM	
[2H]C([2H])([2H])N1C(=O)c2cccc(OC(F)F)c2[C@H]2C[C@@H]1c1nc3ccc(C#CCCC(C)(C)O)cc3n12 [Example 93, (7R,14R)-1-(difluoromethoxy)-11-(5-hydroxy-5-methylhex-1-yn-1-yl)-6-(methyl-d3)-6,7-dihydro-7,14-methanobenzo[f]benzo[4,5]imidazo[1,2-a][1,4]diazocin-5(14H)-one]	< 100 nM	
[2H]C([2H])([2H])N1C(=O)c2cccc(OC(F)F)c2[C@H]2C[C@@H]1c1nc3ccc(C#CCCN4CC(C)(O)C4)cc3n12 [Example 143, (7R,14R)-1-(difluoromethoxy)-11-(4-(3-hydroxy-3-methylazetidin-1-yl)but-1-yn-1-yl)-6-(methyl-d3)-6,7-dihydro-7,14-methanobenzo[f]benzo[4,5]imidazo[1,2-a][1,4]diazocin-5(14H)-one]	< 100 nM	
[2H]C([2H])([2H])N1C(=O)c2cccc(OC(F)F)c2[C@H]2C[C@@H]1c1nc3ccc(C#CCC)cc3n12 [Example 84, (7R,14R)-11-(but-1-yn-1-yl)-1-(difluoromethoxy)-6-(methyl-d3)-6,7-dihydro-7,14-methanobenzo[f]benzo[4,5]imidazo[1,2-a][1,4]diazocin-5(14H)-one]		< 100 nM
[2H]C([2H])([2H])N1C(=O)c2cccc(OC(F)F)c2[C@H]2C[C@@H]1c1nc3ccc(C#CC4CN(C(=O)C5CC5(F)F)C4)cc3n12 (stereo partly drawn) [Example 194, (7R,14R)-11-((1-(2,2-difluorocyclopropane-1-carbonyl)azetidin-3-yl)ethynyl)-1-(difluoromethoxy)-6-(methyl-d3)-6,7-dihydro-7,14-methanobenzo[f]benzo[4,5]imidazo[1,2-a][1,4]diazocin-5(14H)-one]	10000 to 30000 nM	
[2H]C([2H])([2H])N1C(=O)c2cccc(OC(F)F)c2[C@H]2C[C@@H]1c1nc3ccc(C#CC4CC(C)(C#N)C4)cc3n12 (stereo partly drawn) [Example 159, 3-(((7R,14R)-1-(difluoromethoxy)-6-(methyl-d3)-5-oxo-5,6,7,14-tetrahydro-7,14-methanobenzo[f]benzo[4,5]imidazo[1,2-a][1,4]diazocin-11-yl)ethynyl)-1-methylcyclobutane-1-carbonitrile]	< 100 nM	
[2H]C([2H])([2H])N1C(=O)c2cccc(OC(F)F)c2[C@H]2C[C@@H]1c1nc3ccc(C#CCCNC(=O)C(C)(C)O)cc3n12 [Example 213, N-(4-((7R,14R)-1-(difluoromethoxy)-6-(methyl-d3)-5-oxo-5,6,7,14-tetrahydro-7,14-methanobenzo[f]benzo[4,5]imidazo[1,2-a][1,4]diazocin-11-yl)but-3-yn-1-yl)-2-hydroxy-2-methylpropanamide]	10000 to 30000 nM	
[2H]C([2H])([2H])N1C(=O)c2cccc(OC(F)F)c2[C@H]2C[C@@H]1c1nc3ccc(C#CCCN4CCC(F)(F)C4)cc3n12 [Example 226, (7R,14R)-1-(difluoromethoxy)-11-(4-(3,3-difluoropyrrolidin-1-yl)but-1-yn-1-yl)-6-(methyl-d3)-6,7-dihydro-7,14-methanobenzo[f]benzo[4,5]imidazo[1,2-a][1,4]diazocin-5(14H)-one]	< 100 nM	
[2H]C([2H])([2H])N1C(=O)c2cccc(OC(F)F)c2[C@H]2C[C@@H]1c1nc3ccc(C#CCCNC)cc3n12 [Example 151, (7R,14R)-1-(difluoromethoxy)-6-(methyl-d3)-11-(4-(methylamino)but-1-yn-1-yl)-6,7-dihydro-7,14-methanobenzo[f]benzo[4,5]imidazo[1,2-a][1,4]diazocin-5(14H)-one]	100 to 1000 nM	
[2H]C([2H])([2H])N1C(=O)c2cccc(OC(F)F)c2[C@H]2C[C@@H]1c1nc3ccc(C#CCN4CCOCC4)cc3n12 [Example 229, (7R,14R)-1-(difluoromethoxy)-6-(methyl-d3)-11-(3-morpholinoprop-1-yn-1-yl)-6,7-dihydro-7,14-methanobenzo[f]benzo[4,5]imidazo[1,2-a][1,4]diazocin-5(14H)-one]	100 to 1000 nM	
[2H]C([2H])([2H])N1C(=O)c2cccc(OC(F)F)c2[C@H]2C[C@@H]1c1nc3ccc(C#Cc4ccc(C)nn4)cc3n12 [Example 26, (7R,14R)-1-(difluoromethoxy)-6-(methyl-d3)-11-((6-methylpyridazin-3-yl)ethynyl)-6,7-dihydro-7,14-methanobenzo[f]benzo[4,5]imidazo[1,2-a][1,4]diazocin-5(14H)-one]	100 to 1000 nM	
[2H]C([2H])([2H])N1C(=O)c2cccc(OC(F)F)c2[C@H]2C[C@@H]1c1nc3ccc(C#CC4(C)CCN(C(=O)C(C)(C)O)C4)cc3n12 (stereo partly drawn) [Example 192, (7R,14R)-1-(difluoromethoxy)-11-((1-(2-hydroxy-2-methylpropanoyl)-3-methylpyrrolidin-3-yl)ethynyl)-6-(methyl-d3)-6,7-dihydro-7,14-methanobenzo[f]benzo[4,5]imidazo[1,2-a][1,4]diazocin-5(14H)-one]	10000 to 30000 nM	
[2H]C([2H])([2H])N1C(=O)c2cccc(OC(F)F)c2[C@H]2C[C@@H]1c1nc3ccc(C#CC4CC4)c(F)c3n12 [Example 168, (7R,14R)-11-(cyclopropylethynyl)-1-(difluoromethoxy)-12-fluoro-6-(methyl-d3)-6,7-dihydro-7,14-methanobenzo[f]benzo[4,5]imidazo[1,2-a][1,4]diazocin-5(14H)-one]	100 to 1000 nM	
[2H]C([2H])([2H])N1C(=O)c2cccc(OC(F)F)c2[C@H]2C[C@@H]1c1nc3ccc(C#CCCN4CCC4)cc3n12 [Example 135, (7R,14R)-11-(4-(azetidin-1-yl)but-1-yn-1-yl)-1-(difluoromethoxy)-6-(methyl-d3)-6,7-dihydro-7,14-methanobenzo[f]benzo[4,5]imidazo[1,2-a][1,4]diazocin-5(14H)-one]		< 100 nM
[2H]C([2H])([2H])N1C(=O)c2cccc(OC(F)F)c2[C@H]2C[C@@H]1c1nc3ccc(C#CC(=O)NCC(F)(F)F)cc3n12 [Example 89, 3-((7R,14R)-1-(difluoromethoxy)-6-(methyl-d3)-5-oxo-5,6,7,14-tetrahydro-7,14-methanobenzo[f]benzo[4,5]imidazo[1,2-a][1,4]diazocin-11-yl)-N-(2,2,2-trifluoroethyl)propiolamide]		100 to 1000 nM
[2H]C([2H])([2H])N1C(=O)c2cccc(OC(F)F)c2[C@H]2C[C@@H]1c1nc3ccc(C#CC4(O)CNC4)cc3n12 [Example 251, (7R,14R)-1-(difluoromethoxy)-11-((3-hydroxyazetidin-3-yl)ethynyl)-6-(methyl-d3)-6,7-dihydro-7,14-methanobenzo[f]benzo[4,5]imidazo[1,2-a][1,4]diazocin-5(14H)-one]	10000 to 30000 nM	
[2H]C([2H])([2H])N1C(=O)c2cccc(OC(F)F)c2[C@H]2C[C@@H]1c1nc3ccc(C#CCC(O)C(C)O)cc3n12 (single isomer, unassigned) [Example 244, (7R,14R)-1-(difluoromethoxy)-11-((4S or 4S,5R or 5S)-4,5-dihydroxyhex-1-yn-1-yl)-6-(methyl-d3)-6,7-dihydro-7,14-methanobenzo[f]benzo[4,5]imidazo[1,2-a][1,4]diazocin-5(14H)-one]	< 100 nM	
[2H]C([2H])([2H])N1C(=O)c2cccc(OC(F)F)c2[C@H]2C[C@@H]1c1nc3ccc(C#C[C@@H](C)CO)cc3n12 [Example 128, (7R,14R)-1-(difluoromethoxy)-11-((R)-4-hydroxy-3-methylbut-1-yn-1-yl)-6-(methyl-d3)-6,7-dihydro-7,14-methanobenzo[f]benzo[4,5]imidazo[1,2-a][1,4]diazocin-5(14H)-one]	< 100 nM	
[2H]C([2H])([2H])N1C(=O)c2cccc(OC(F)F)c2[C@H]2C[C@@H]1c1nc3ccc(C#CC(O)C(F)(F)F)cc3n12 (single isomer, unassigned) [Example 200, (7R,14R)-1-(difluoromethoxy)-6-(methyl-d3)-11-((S or R)-4,4,4-trifluoro-3-hydroxybut-1-yn-1-yl)-6,7-dihydro-7,14-methanobenzo[f]benzo[4,5]imidazo[1,2-a][1,4]diazocin-5(14H)-one]	100 to 1000 nM	
